“Also recorded” adds a separate entry of the source. Where no end group is shown, it is not given here. [ ]: non-standard residue; d: D form.
Experiments:
[1] = test system: Bovine Retinal Endothelial Cells (BRE); experiment: VEGF-mediated survival/proliferation of bovine retinal endothelial cells (WST1); format: cell-based; conditions: VEGF 25 ng/ml, 72 hours; for Inhibition of VEGF-mediated survival/proliferation: FIG. 4 and 5
Description: (§1) The anti-angiogenic activities of the peptides were tested by measuring the level of inhibition of VEGF and bFGF mediated survival/proliferation of Bovine Retinal Endothelial Cells (BRE), Human Dermal Microvasculature Endothelial Cells, and Human Umbilical Vein Endothelial Cells, all of which are standard cell lines used to test anti-angiogenic compounds.
Bovine retinal endothelial (BRE) cells were maintained in Cambrex EG2 media. For non-adherent cell assays, on day one cells were starved for either 6 hours or overnight, then trypsinized and plated in 96-well plates in 100 μl of Optimem plus 1% fetal bovine serum (FBS). One hundred μl of Optimem plus 1% FBS was added to the wells containing, where appropriate, VEGF to a final concentration of 25 ng/ml, and the various peptides to final concentrations as described. For adherent cells, cells were plated in 96-well plates in complete media, allowed to adhere overnight, washed in starvation media (Optimem plus 1% FBS) and then starved during the day. At the end of the day, 100 μl of Optimem plus 1% FBS was added to the wells containing, where appropriate, VEGF to a final concentration of 25 ng/ml and the various peptides to final concentrations as described.
(§2) In all cases, after 72 hours incubation, the amount of live cells in each well was measured with the WST1 assay (Roche).

B16-F1 melanoma cells = experiment: Subcutaneous B16 melanoma tumor growth in vivo; design: species or system mouse
Description: Because of the importance of the angiogenic process for tumorigenesis, miniproteins as described herein, were hypothesized to show good anti-tumor activity. The peptides of the invention were tested in an in vivo model of anti-tumor activity. This model compares the growth of subcutaneous B16 melanoma tumor in vivo either untreated or treated with various amount of miniproteins described in this application. This model is widely accepted in the art as a model to test the anti-tumor activity of compounds that inhibit tumor growth because they have anti-angiogenic activity.
Male C57BL/6 mice were obtained with a mean body weight of 20±2 g. Mouse B16-F1 melanoma cells were implanted subcutaneously (5×10^5 cell per animal). Peptides (formulated in water) were administered ip daily at the amount indicated starting the day after cells injection. In general, tumors became palpable around 9 days after injection of cells. Tumor were then measured every 2 days.

[2] = test system: VEGF binding to its receptor; experiment: Inhibition of binding of radiolabeled VEGF to endothelial cells; conditions: 30 μM; for VEGF binding inhibition: FIG. 7 legend
Description: The activity of the peptides SEQ ID NO.: 1 and SEQ ID NO.: 2 in blocking the binding of radiolabeled VEGF to endothelial cells is shown in FIG. 7.
FIG. 7 illustrates the inhibition of VEGF binding to its receptor by two miniproteins wherein a heparin binding domain is linked to an integrin binding domain. […] Both peptides achieved an almost 100% inhibition at a concentration of 30 μM.

[3] = Heparin binding activity, Hi Trap Heparin HP column, NaCl step elution; conditions: for [NaCl] for elution: heparin column; for fraction number: 500 μl fractions of heparin column elution
Excerpt: Liquid chromatography was used to determine the relative levels of heparin binding activity of the individual heparin binding domains and of the anti-angiogenic miniproteins that contains them. In this assay, the strength of the heparin binding activity is proportional to the amount of NaCl that is required to elute the peptide bound to the heparin column. Peptides with low binding activity are eluted with lower NaCl concentration, whereas higher concentrations of NaCl are required for peptides with higher binding activity.
Hi Trap Heparin HP column (1 ml, Amersham Biosciences) was equilibrated with 10 column volumes (CV) of equilibration (EQ) buffer=10 mM NaH2PO4 pH 7. All buffers were loaded onto columns via syringes. 500 μl fractions are collected (flow rate=1 ml/minute). 500 μg of peptide (1 mg/ml, resuspended in EQ buffer) was added to each column and the flow through was collected for analysis. The columns were then washed with 3 CV of EQ buffer. Peptides are then eluted with a step gradient of 500, 625, 750, 875 mM NaCl in EQ buffer, 2 CV per each step. A final step of 3 CV of 1000 mM NaCl in EQ buffer was collected in 500 μl fractions. The A210 nm was measured using EQ and elution buffers as blanks.

[4] = test system: L1210 murine leukemia cells; experiment: L1210 murine leukemia intravenous model, survival; format: in vivo, mouse; conditions: dosed IP, FIG. 15a; for Survival: DBA/2 mice
Description: Antitumor activity of test peptides, administered intraperitoneally (IP), were evaluated against L1210 murine leukemia cells implanted intravenously (IV) in DBA/2 mice.
Studies generally consisted of randomly-assigned groups of 8 mice per group, which were inoculated IV with 1×10^5 cells per mouse from an in vivo leukemia cell line. In addition to groups tested with test peptides, studies usually included a vehicle-treated control group and a positive control group treated with an agent known to be active in the L1210 leukemia model. Starting one day after tumor inoculation (inoculation day defined as Day 0), mice were treated IP with either vehicle or test peptides in various schedules. Generally this consisted of treatment every other day for approximately 1 week (e.g., Days 1, 3, 5 and 7). A positive agent (e.g., cyclophosphamide) was usually given as a single IP injection on Day 1. All dosing solutions were prepared on each day of treatment. Survival was monitored daily and body weights were measured twice weekly. Anti-tumor activity was assessed by the increase in lifespan of the treated groups in comparison to the vehicle-treated control group. Studies with the L1210 leukemia model were limited to 30 days.

[5] = test system: Human Umbilical Vein Endothelial Cells; experiment: bFGF-mediated survival/proliferation of human umbilical vein endothelial cells (WST1); format: cell-based; conditions: FIG. 6, 9, 10, 17
Description: as §1
Human umbilical cord endothelial (HUVEC) cells were maintained in Cambrex EGM-2MV media. On day one, cells were starved overnight in 1% FBS in M200 media (Cascade Biologicals). The morning after, the media were replaced with serum-free media (control) or media containing 25 ng/ml of human VEGF165 and the various peptides to final concentrations as described.
as §2

[6] = 20 mg/kg daily IP, vs untreated controls, FIG. 12 and 14
[7] = step gradient in 10 mM NaH2PO4 pH 7

For “ATSLPPHSSQSP (listed as Homo sapiens) [ST100,038]”, the “Concentration that completely abolished VEGF-induced increase in WST-1 value” ([1]; FIG. 4) was “above 40 μM” and the “Inhibition of VEGF-mediated survival/proliferation” value [1] was “caused the amount of WST-1 to decrease”.

In the case of “ATSLPPHSSQSPGGGPPAARGRRAARGRR (listed as Homo sapiens) [ST100,062]”, the “P (ANOVA) of tumor growth inhibition” value (B16-F1 melanoma cells; 20 mg/kg daily IP, FIG. 12) is reported as greater than 0.05 and the “Inhibition of tumor growth” value (B16-F1 melanoma cells; [6]) is reported as “clearly inhibit tumor growth”.

With “PYAGRGDSVVYGLGGGPGAARGRRAARGRR [ST100,033]” the “inhibition of VEGF binding” value [2] was roughly 100% and the “VEGF binding inhibition” value [2] was “completely abolished VEGF binding”.

For “RAAKKRARAAKKRARAAKKRLGYVVSDGRGDYP (listed as Homo sapiens) [ST100,079]”, the “[NaCl] for elution” value [3, 7] was 1000 mM.

In the case of “RKGRRKGRRKGRRKGRRKGKK ([dR][dK]G[dR][dR][dK]G[dR][dR][dK]G[dR][dR][dK]G[dR][dR][dK]G[dK][dK]; listed as Homo sapiens) [ST100,087]”, the “heparin binding activity (comparison in words)” value (shortened to “heparin binding activity”) [3] is reported as “even greater increase in heparin binding”, the fraction number [3] is reported as 35-36 and the “[NaCl] for elution” value [3, 7] is reported as 1500 mM.

With “RKKAARARKKAARARKKAARRLGYVVSDGRGDYP (listed as Homo sapiens) [ST100,081]” the fraction number [3] was 26-27 and the “[NaCl] for elution” value [3, 7] was 1000 mM.

With “RKRAARARKRAARARKRAARR (listed as Homo sapiens) [ST100,083]” the “[NaCl] for elution” value [3, 7] was 1100 mM.

In the case of “RLGYVVSDGRGDYPKKKRRGRAARRGRAA [ST100,065, middle rotated replaced version of ST100,061]”, the “Survival” value [4] is reported as “statistically significant increases in survival”, the “mice (cured mice) that survived longer than 30 days” value [4] is reported as “Sixty to eighty” and the “heparin binding activity” value [3] is reported as “bind less strongly than ST100,082”. For the same sequence, the “[NaCl] for elution” value [3, 7] was 750 mM.

For “RRGRAAKKKRRGRAAKKK (listed as Homo sapiens) [ST100,082]”, the fraction number [3] was 26-27 and the “[NaCl] for elution” value [3, 7] was 1000 mM.

In the case of “RRGRAAKKKRRGRAAKKKPSQSSHPPLSTA (listed as Homo sapiens) [ST100,072]”, the fraction number [3] is reported as 26-27, the “[NaCl] for elution” value [3, 7] is reported as 1000 mM and the “Inhibition of bFGF-mediated survival” value [5] is reported as “more potent in blocking bFGF stimulation”.

With “RRGRAAKKKRRGRAAKKKRLGYVVSDGRGDYP [ST100,074]” the “Survival” value [4] was “statistically significant increases in survival”, the “mice (cured mice) that survived longer than 30 days” value [4] was “Sixty to eighty” and the fraction number [3] was 27-28. For the same sequence, the “[NaCl] for elution” value [3, 7] was 1000 mM and the “Inhibition of bFGF-mediated survival” value [5] was “the most active in inhibiting bFGF stimulation”.

For “RRGRAARRGRAAKKKPSQSSHPPLSTA (listed as Homo sapiens) [ST100,068]”, the “Inhibition of VEGF-mediated survival/proliferation” value [1] was “VEGF stimulation was inhibited with increasing doses; also recorded: more potent in blocking VEGF stimulation”, the “[NaCl] for elution” value [3, 7] was 875 mM and the “Inhibition of tumor growth” value (B16-F1 melanoma cells; 20 mg/kg and 40 mg/kg daily IP, FIG. 13) was “able to inhibit tumor growth”.

For “RRGRAARRGRAARRGRAAKKKPSQSSHPPLSTA (listed as Homo sapiens) [ST100,073]”, the fraction number [3] was 26-27, the “[NaCl] for elution” value [3, 7] was 1000 mM and the “Inhibition of bFGF-mediated survival” value [5] was “more potent in blocking bFGF stimulation; also recorded: the most active in inhibiting bFGF stimulation”. The “Inhibition of tumor growth” value (B16-F1 melanoma cells; [6]) was “able to inhibit tumor growth”.

For “RRGRARRGRARRGRARRGKK ([dR][dR]G[dR][dA][dR][dR]G[dR][dA][dR][dR]G[dR][dA][dR][dR]G[dK][dK]; listed as Homo sapiens) [ST100,085]”, the fraction number [3] was 31-32 and the “[NaCl] for elution” value [3, 7] was 1100 mM.

For “RRGRRRGRRRGRRRGKK (listed as Homo sapiens) [ST100,089]”, the “heparin binding activity” value [3] was “even greater increase in heparin binding”, the fraction number [3] was 34-35 and the [NaCl] for elution ([3]; unit given as M) was 1300 mM.

For “RRGRRRGRRRGRRRGKKPSQSSHPPLSTA ([dR][dR]G[dR][dR][dR]G[dR][dR][dR]G[dR][dR][dR]G[dK][dK][dP][dS][dQ][dS][dS][dH][dP][dP][dL][dS][dT][dA]; listed as Homo sapiens) [ST100,093]”, the “Inhibition of bFGF-mediated survival” value [5] was “more potent than similar peptides with weaker heparin binding domains”.

With “RRQRRRGRRRQRRRGKK (listed as Homo sapiens) [ST100,090]” the “heparin binding activity” value [3] was “even greater increase in heparin binding”, the fraction number [3] was 33-34 and the “[NaCl] for elution” value [3, 7] was 1300 mM.

For YDGRGDSVVYGLKKKAARGRRAARGRR [ST100,032], the “inhibition of VEGF binding” value [2] was roughly 100% and the “VEGF binding inhibition” value [2] was “completely abolished VEGF binding”.
